In US5998453A, “Oxazolidinone compounds and pharmaceutical preparation containing them” (Schering Aktiengesellschaft, priority 1984, dated 1999):

Test system: weight increase caused by croton oil
Test: rat ear test according to Tonelli (croton oil), topical anti-inflammatory activity
Type: in vivo, Wistar rats
Conditions: 5 hours after treatment

| Compound | ED50 |
| --- | --- |
| COc1ccc(C2CNC(=O)C2)cc1OC1CCCC1 (stereo not drawn) [Compound 4, 4-(3-Cyclopentyloxy-4-methoxyphenyl)-2-pyrrolidone] | 0.6 mg/kg |
| CCCCOc1ccc(CC(=O)NO)cc1 [Compound 1, Bufexamac] | 15 mg/kg |
| COc1ccc(C2CNC(=O)C2)cc1OC1CCOC1 (stereo not drawn) [Compound 5, 4-[4-Methoxy-3-(3-tetrahydrofuryloxy)phenyl]-2-pyrrolidone] | 0.2 mg/kg |
| CCCC(=O)OC1(C(=O)CO)CCC2C3CCC4=CC(=O)CCC4(C)C3C(O)CC21C (stereo not drawn) [Compound 3, Hydrocortisone 17-butyrate] | 0.5 mg/kg |
| COc1ccc(C2CNC(=O)C2)cc1OCC(C)C (stereo not drawn) [Compound 6, 4-(3-Isobutoxy-4-nmethoxypheny1)-2-pyrrolidone] | 1.1 mg/kg |
| O=C(O)COc1nn(Cc2ccccc2)c2ccccc12 [Compound 2, Bendazac] | 15 mg/kg |
